From US5260271A, “Nisin compositions for use as enhanced broad range bactericides” (Applied Microbiology, Inc., priority 1992, dated 1993)

How the values were obtained:
[1] = system: S. typhimurium; test: Bactericidal activity, percent bacterial survival of S. typhimurium suspension; format: cell-based, Salmonella typhimurium; conditions: for % Survival at 2 hours: S. typhimurium
Method: (§1) All tests in the following examples were performed at 37° C. The efficacy of the enhanced broad range bactericides was determined by assaying bactericidal activity as measured by the percent bacterial survival after treatment with the bactericide. Generally, after incubation of a 10^7 cell per ml suspension of target species with the novel bactericide for specified lengths of time, bacteria were collected by centrifugation for 2 minutes. […] Surviving bacteria were determined by scoring colony forming units (CFU) after incubation for 24-48 hours at 37° C.
The control (Test #1) is identical to the control of Example 1 (Table 1).

[2] = system: E. coli; test: Bactericidal activity, percent bacterial survival of E. coli suspension; format: cell-based, Escherichia coli; conditions: for Percentage E. coli Survival at 2 hours: 20 mM Tris pH 8.0
Method: as §1
The effects of the bactericide were measured as a function of percentage bacteria survival after 2 hours.
Incubations were performed in 20 mM Tris, […] at 37° C.

[3] = system: K. pneumoniae; test: Bactericidal activity, percent bacterial survival of K. pneumoniae suspension; format: cell-based, Klebsiella pneumoniae; conditions: Nisin 0, EDTA 20 mM, 20 mM Tris pH 8.0
Method: as §1
The effect was measured as a function of percentage bacterial survival after 2 hours.

[4] = system: S. typhimurium on chicken muscle; test: Bactericidal activity towards S. typhimurium on chicken muscle (unadhered cells); format: cell-based, Salmonella typhimurium
Method: Incubations were performed in either 50 mM sodium acetate, pH 5.0, or 20 mM Tris, pH 8.0 at 37° C.
Cubes of chicken muscle were cleansed with sodium hypochlorite and povidone iodine prior to use. To inoculate the tissue, the cubes of chicken muscle were dipped into a 10^8 cells/ml suspension of S. typhimurium in 20 mM Tris HCl, pH 8.0. Excess moisture was removed from dipped cubes by tapping. The chicken samples were placed into sufficient buffer containing the nisin composition to cover the tissue and incubated for 2 hours at 37° C. after which the tissue was removed to sufficient Phage buffer to cover the tissue. The bacteria remaining in the test solution were collected by centrifugation, washed with Phage buffer, and combined with bacteria washed from the tissue by Phage buffer. The combined samples (termed "unadhered" cells) were serially diluted and 100 μl aliquots were plated for determination of surviving bacteria.
(§2) Cubes of chicken muscle were cleansed with sodium hypochlorite and povidone iodine prior to use. To inoculate the tissue, the cubes of chicken muscle were dipped into a 10^8 cells/ml suspension of S. typhimurium in 20 mM Tris HCl, pH 8.0. Excess moisture was removed from dipped cubes by tapping. The tissue was placed into sufficient buffer containing the nisin compositions to cover the tissue, and incubated for 2 hours at 37° C. after which the tissue was removed to sufficient Phage buffer to cover the tissue. The bacteria remaining in the test solution were collected by centrifugation, washed with Phage buffer, and combined with bacteria washed from the tissue by Phage buffer. The combined samples (termed "unadhered" cells) were serially diluted and 100 μl aliquots were plated for determination of surviving bacteria.
as §2, with “cleaned” for “cleansed”, “50” for “20”, “sodium acetate buffer,” for “Tris HCl,”, “5.0.” for “8.0.”, “containing” for “containing the”

[5] = system: Staphylococcus aureus; test: Bactericidal activity towards Staphylococcus aureus, percent survival; format: cell-based; conditions: S. aureus
Method: (§3) All tests in the following examples were performed at 37° C. The efficacy of the enhanced broad range bactericides was determined by assaying bactericidal activity as measured by the percent bacterial survival after treatment with the bactericide. Generally, after incubation of a 10^7 cell per ml suspension of target species with the novel bactericide for specified lengths of time, bacteria were collected by centrifugation for 2 minutes. […] Surviving bacteria were determined by scoring colony forming units (CFU) after incubation for 24-48 hours at 37° C. An effective bactericide according to this invention is one which allows less than 0.1% of the initial viable count of the bacteria to survive.
Incubations were performed in 50 mM sodium acetate buffer, pH 5.0 or 20 m
TrisHCl buffer, pH 8.0 at 37° C.

[6] = system: Streptococcus mutans; test: Bactericidal activity and kinetics towards Streptococcus mutans in Tris buffer; format: cell-based; conditions: S. mutans, Nisin 0 with 1.0 mM EDTA, pH 7.3
Method: All tests in the following examples were performed at 37° C. The efficacy of the enhanced broad range bactericides was determined by assaying bactericidal activity as measured by the percent bacterial survival after treatment with the bactericide. Generally, after incubation of a 10^7 cell per ml suspension of target species with the novel bactericide for specified lengths of time, bacteria were collected by centrifugation for 2 minutes. The bacterial pellet was washed free of the bactericide with a rescue buffer, termed herein Phage buffer (50mM Tris-HCl buffer pH 7.8, 1 mM MgSO4, 4 mM CaCl2, 0.1 M Nacl, and 0.1% gelatin), resuspended and serially diluted into Phage buffer, and 100 μl of the suspended bacteria were spread on nutrient agar plates. Surviving bacteria were determined by scoring colony forming units (CFU) after incubation for 24-48 hours at 37° C.
The suspensions were incubated for various times ranging from 0.5 to 60 minutes with the bactericides.
Incubations were performed in 20 mM TrisHCl, pH 7.3 at 37° C.

[7] = system: Listeria monocytogenes; test: Bactericidal activity towards Listeria monocytogenes in Tris buffer; format: cell-based; conditions: L. monocytogenes; pH 8.0, Nisin 0, EDTA 1.0 mM
Method: as §3
(§4) Incubations were performed in 20 mM TrisHCl, pH 8.0 at 37° C.

[8] = system: Coryneform bacteria; test: Bactericidal activity towards Coryneform bacteria; format: cell-based
Method: as §3, §4

[9] = system: Listeria monocytogenes; test: Bactericidal activity towards Listeria monocytogenes in milk; format: cell-based; conditions: for % Survival 2 hr: L. monocytogenes in milk at 37° C.
Method: as §3
An example of where the application of nisin is limited by its available activity is illustrated by the data in Table 15B.
(§5) Incubations were in milk at 37° C.

[10] = system: Streptococcus agalactiae; test: Bactericidal activity towards Streptococcus agalactiae in milk; format: cell-based; conditions: for % survival at 2h: S. agalactiae in milk at 37° C.
Method: as §3
However, the combination of the two agents, 0.1% monolaurin and nisin 0.2 μg/ml, is extremely potent towards S. agalactiae. […] Thus, when the application of nisin is limited by its available activity, a bactericide comprising nisin with a surfactant can be expected to be more useful.
as §5

In the case of `O=C(O)CN(CCN(CC(=O)O)CC(=O)O)CC(=O)O` [EDTA], the “Percentage S. typhimurium Survival at 3 hours” value ([1]; Nisin 0, EDTA 20 mM, 20 mM Tris pH 8.0, 37° C) is reported as 2.5%, the “% Survival at 2 hours” value ([1]; Nisin 0, EDTA 1.0 mM, BSA 1.0%, 20 mM Tris pH 8.0) is reported as 63% and the “% Survival at 2 hours” value ([1]; pH 5.0 (50 mM sodium acetate), Nisin 0, EDTA 2.0 mM) is reported as 38.7%. The “% Survival at 2 hours” value ([1]; pH 5.0, Nisin 0, EDTA 10 mM) was 15.2%, the “% Survival at 2 hours” value ([1]; pH 5.0, Nisin 0, EDTA 50 mM) was 3.5% and the “% Survival at 2 hours” value ([1]; pH 8.0 (20 mM Tris), Nisin 0, EDTA 2.0 mM) was 8.7%. The “% Survival at 2 hours” value ([1]; pH 8.0, Nisin 0, EDTA 10 mM) was 14%, the “% Survival at 2 hours” value ([1]; pH 8.0, Nisin 0, EDTA 50 mM) was 11.4% and the “% Survival at 2 hours” value ([1]; pH 8.0, Nisin 0, EDTA 100 mM) was 45%. The “Percentage S. typhimurium Survival at 3 hours” value ([1]; Table 3: Nisin 0, EDTA 20 mM, Tween20 0%, 20 mM Tris pH 8.0) was 2.5%, the “% survival at 1 min.” value ([2]; E. coli, Nisin 0, 1.0 mM EDTA, 20 mM Tris pH 7.0) was 100% and the “Percentage E. coli Survival at 2 hours” value ([2]; Nisin 0, EDTA 20 mM, Triton X-100 0%) was 14.5%. The “% Survival at 2 hours” value [3] was 22%, the “% Survival at 2 hours” value ([4]; Table 9, chicken muscle, pH 8.0, Nisin 0, EDTA 1.0 mM, BSA 1.0%) was 27% and the “% Survival at 2 hours (Unadhered cells)” value ([4]; Table 10, chicken muscle, Nisin 0, EDTA 10 mM, Methyl Paraben 0%, 50 mM Na acetate buffer, pH 5.0) was 11.8%. The “% Survival at 2 hours (Unadhered cells)” value ([4]; chicken muscle, pH 5.0, Nisin 0, EDTA 10 mM) was 6.4%, the “% Survival at 2 hours (Unadhered cells)” value ([4]; chicken muscle, pH 8.0, Nisin 0, EDTA 10 mM) was 5.2% and the “% Survival 2 hr” value ([5]; pH 5.0, Nisin 0, EDTA 3.0 mM) was 100%. For the same molecule, the “% Survival 2 hr” value ([5]; pH 8.0, Nisin 0, EDTA 0.3 mM) was 100%, the “% Survival 2 hr” value ([5]; pH 8.0, Nisin 0, EDTA 1.0 mM) was 81% and the “% Survival 2 hr” value ([5]; pH 8.0, Nisin 0, EDTA 3.0 mM) was 100%. For the same molecule, the “% Survival 2 hr” value ([5]; pH 8.0, Nisin 0, EDTA 10 mM) was 100%, the “% Survival 2 hr” value ([5]; pH 8.0, Nisin 0, EDTA 30 mM) was 100% and the “% Survival” value ([6]; incubation 3 min) was 100%. For the same molecule, the “% Survival” value ([6]; incubation 60 min) was 100%, the “% Survival after 2 hr” value [7] was 84% and the “% Survival 2 hr” value ([8]; pH 8.0, Nisin 0, EDTA 0.3 mM) was 4.6%. For the same molecule, the “% Survival 2 hr” value ([8]; pH 8.0, Nisin 0, EDTA 1.0 mM) was 3.6%, the “% Survival 2 hr” value ([8]; pH 8.0, Nisin 0, EDTA 3.0 mM) was 8% and the “% Survival 2 hr” value ([8]; pH 8.0, Nisin 0, EDTA 10 mM) was 36%.
For Triton X-100, the “Percentage E. coli Survival at 2 hours” value ([2]; Nisin 0, EDTA 0 mM, Triton X-100 1.0%) was 100% and the “bactericidal activity towards E. coli” value ([2]; Triton X-100 alone, tests #3 and #4 of Table 4) was “no significant bactericidal activity”.
For monooleate, the “% Survival 2 hr” value ([9]; Nisin 0, Monooleate 0.1%) was 67%, the “% Survival 2 hr” value ([9]; Nisin 0, Monooleate 1.0%) was 63% and the “bactericidal activity towards L. monocytogenes” value ([9]; monooleate by itself, in milk) was “no bactericidal activity”.
With `CCCCCCCCCCCC(=O)OCC(O)CO` (centres unmarked) [Monolaurin, monolaurin] the “% survival at 2h” value ([10]; Nisin 0, Monolaurin 0.01%) was 100%, the “% survival at 2h” value ([10]; Nisin 0, Monolaurin 0.1%) was 4.5% and the “bactericidal activity towards Streptococcus agalactiae” value ([10]; monolaurin at concentrations up to 0.1%, in milk) was “little significant bactericidal activity”.
